In brackets after ≈: the same amount, converted by molar mass.
Experiments:
A. baumannii ATCC 17978 = assay: Antibacterial activity in vitro, broth microdilution MIC; assay type: cell-based; settings: 16–24 h at 37 °C, unit inferred
Experimental: (§1) The in vitro antibacterial activity of the synthesized benzamides 7–12 and 31–37 was evaluated against a panel of eight different bacterial strains. The Gram-positive bacterial strains comprised S. aureus, S. pneumoniae and E. faecalis, and the panel of Gram-negative bacteria consisted of E. coli, K. pneumoniae, A. baumannii and P. aeruginosa.
(§2) The selected bacterial strains were Gram-negative Escherichia coli (ATCC 25922) and Gram-positive Staphylococcus aureus (ATCC 29213) and S. Pneumoniae (ATCC 49619). The Saccharomyces cerevisiae ATCC 7752 strain was tested as a eukaryotic model organism. Synthesized compounds were prepared as 10 mM DMSO solutions and tested in a final concentration range of 100–0.2 µM [39].
(§3) Broth microdilution testing was performed according to CLSI (Clinical Laboratory Standards Institute) guidelines. The MIC (minimal inhibitory concentration) value was defined as the last tested concentration of a compound at which there is no visible growth of bacteria. Inoculums for each microorganism were prepared using the direct colony suspension method, where broth solutions that achieved turbidity equivalent to 0.5 McFarland standards were additionally diluted 100× with cation-adjusted MH media (Becton Dickinson). All test plates were incubated for 16–24 h at 37 °C.

E. faecalis ATCC 29212 = assay: as above; assay type: cell-based; settings: for MIC E. faecalis ATCC 29212: broth microdilution, 16–24 h at 37 °C, unit inferred
Experimental: as §1, §2, §3

P. aeruginosa ATCC 27853 = assay: as above; assay type: cell-based; settings: 16–24 h at 37 °C, unit inferred
Experimental: as §1, §2, §3

S. aureus ATCC 29213 = assay: as above; assay type: cell-based, Staphylococcus aureus; settings: for MIC S. aureus ATCC 29213: broth microdilution, 16–24 h at 37 °C, unit inferred
Experimental: as §1, §2, §3

E. coli efflux del. = assay: microbe, parasite or virus in culture; assay type: cell-based, Escherichia coli; settings: broth microdilution, 16–24 h at 37 °C; unit inferred
Experimental: as §1, §2, §3

E. coli ATCC 25922 = assay: Antibacterial activity in vitro, broth microdilution MIC; assay type: cell-based, Escherichia coli; settings: 16–24 h at 37 °C, unit inferred
Experimental: as §1, §2, §3

[1] = system: HEK 293 (human embryonic kidney); assay: Antiproliferative activity in vitro, MTT assay, 72 h, non-cancerous cell line; assay type: cell-based; settings: HEK293, 72 h incubation, '-' with footnote a = did not show biological activity due to precipitation
Experimental: (§4) The experiments were carried out on four human cell lines which are derived from three cancer types: H460 (lung carcinoma), HCT 116 (colorectal carcinoma), MCF-7 (human breast cancer) and the non-cancerous cell line HEK 293 (human embryonic kidney).
(§5) The results are compared with the known antiproliferative agents doxorubicin and etoposide. […] Therefore, it is not clear whether the observed antiproliferative activity is due to the biological activity of the compounds or to precipitation.
(§6) The experiments were performed on four human cell lines, including HCT 116 (colon carcinoma), H 460 (lung carcinoma), MCF-7 (breast carcinoma) and HEK 293 (human embryonic kidney cells), in line with previously published experimental procedures. Briefly, the cells were grown in DMEM medium with the addition of 10% fetal bovine serum (FBS), 2 mM of L-glutamine, 100 U/mL of penicillin and 100 µg/mL of streptomycin and cultured as monolayers at 37 °C in a humidified atmosphere with 5% CO2. Cells were seeded at 2 × 10^3 cells/well in standard 96-well microtiter plates and left to attach for 24 h. The next day, a test compound was added in five serial 10-fold dilutions. The rate of cell growth was evaluated after 72 h of incubation with MTT assays. […] Each test was performed in quadruplicate in at least two individual experiments.

[2] = Ferric reducing/antioxidant power (FRAP assay); design: FRAP: unit not given here; settings: for FRAP: Fe2+ equivalents, triplicate; for FRAP ferric reducing/antioxidant power, in words: compared to the standard BHT
Experimental: (§7) The synthesized benzazole acrylonitrile derivatives were screened for their antioxidative potency by using in vitro assays, namely DPPH and ABTS as free radical scavenging assays and FRAP as a ferric reducing/antioxidant power assay.
The antioxidant activity of a substance is directly related to its reducing power.
The FRAP method was carried out according to previously described procedures with some modifications to make it compatible with an assay on a 96-well microplate. All results were expressed as Fe^2+ equivalents (Fe^2+ µmol). Ferrous sulphate (FeSO4 × 7H2O) was used to develop a standard curve of 20–2000 µmol/l for the FRAP test.

[3] = DPPH free radical scavenging assay; settings: compared to the standard BHT
From the text: as §7
The well-known antioxidant butylated hydroxytoluene (BHT) was used as a standard for comparing activity during testing. The DPPH assay is a standard commonly used test for the in vitro assessment of the antioxidant capacity of novel compounds by using their ability to scavenge the stable radical 1,1-diphenyl-picrylhydrazyl. […] Another test used to evaluate the antioxidative capacity of novel compounds was the ABTS test, by which their activity was evaluated by scavenging the stable radical 3-ethylbenzthiazoline-6-sulphonic acid.
Determination of the reducing activity of the stable radical 1,1-diphenyl-picrylhydrazyl (DPPH):
The reducing activity of the investigated systems was measured by the DPPH method according to previously described procedures with modifications to ensure their use on a 96-well microplate. Briefly, equal volumes of various concentrations of the tested molecules (dissolved in DMSO) were added to a solution of DPPH (final concentration of 50 µM in absolute ethanol). Ethanol and DMSO were used as control solutions in line with earlier reports. The radical scavenging activity was calculated using the following formula:[(A517 control − A517 compound)/A517 control] × 100.
The IC50 values were calculated from dose–response curves using nonlinear regression analysis with the GraphPad Prism 8 Ink. program. All measurements were carried out in triplicate.

[4] = system: HCT 116 (colorectal carcinoma); assay: Antiproliferative activity in vitro, MTT assay, 72 h; assay type: cell-based; settings: Homo sapiens, 72 h incubation, '-' with footnote a = did not show biological activity due to precipitation
Experimental: as §4, §5, §6

[5] = system: MCF-7 (human breast cancer); assay: as above; assay type: cell-based; settings: MCF7, 72 h incubation
Experimental: as §4, §5, §6

H460 (lung carcinoma) = assay: as above; assay type: cell-based; settings: Homo sapiens, NCI-H460, 72 h incubation
Experimental: as §4, §5, §6

| Structure (SMILES) | MIC A. baumannii ATCC 17978 (A. baumannii ATCC 17978) | MIC E. faecalis ATCC 29212 (E. faecalis ATCC 29212) | MIC P. aeruginosa ATCC 27853 (P. aeruginosa ATCC 27853) | MIC S. aureus ATCC 29213 (S. aureus ATCC 29213) | MIC E. coli efflux del. (E. coli efflux del.) | MIC E. coli ATCC 25922 (E. coli ATCC 25922) | IC50 [1] | FRAP [2] | FRAP ferric reducing/antioxidant power, in words [2] | DPPH free radical scavenging activity, in words [3] | MIC (E. faecalis ATCC 29212; Enterococcus faecalis, ATCC29212, read-out: MIC E. faecalis) | Selectivity of antibacterial activity, in words (E. faecalis ATCC 29212; against the Gram-positive strain E. faecalis) | IC50 [4] | IC50 [5] | IC50 (H460 (lung carcinoma)) | melting point | MIC (S. aureus ATCC 29213; Staphylococcus aureus, ATCC29213, read-out: MIC S. aureus) |
| --- | --- | --- | --- | --- | --- | --- | --- | --- | --- | --- | --- | --- | --- | --- | --- | --- | --- |
| CC1(C)S[C@@H]2[C@H](NC(=O)[C@H](N)c3ccccc3)C(=O)N2[C@H]1C(=O)O [Ampicillin, ampicillin, reference compound] | 32 µM (≈ 11.2 µg/mL) | 1 µM (≈ 0.349 µg/mL) | > 64 µM | 0.5 µM (≈ 0.175 µg/mL) |  |  |  |  |  |  |  |  |  |  |  |  |  |
| CC[C@H]1OC(=O)[C@H](C)[C@@H](O[C@H]2C[C@@](C)(OC)[C@@H](O)[C@H](C)O2)[C@H](C)[C@@H](O[C@@H]2O[C@H](C)C[C@H](N(C)C)[C@H]2O)[C@](C)(O)C[C@@H](C)CN(C)[C@H](C)[C@@H](O)[C@]1(C)O [Azithromycin, azithromycin, reference compound] | 8 µM (≈ 5.99 µg/mL) | 8 µM (≈ 5.99 µg/mL) | 32 µM (≈ 24 µg/mL) | 1 µM (≈ 0.749 µg/mL) | 0.5 µM (≈ 0.374 µg/mL) | 4 µM (≈ 3 µg/mL) |  |  |  |  |  |  |  |  |  |  |  |
| CC(C)(O/N=C(\C(=O)N[C@@H]1C(=O)N2C(C(=O)[O-])=C(C[n+]3ccccc3)CS[C@H]12)c1csc(N)n1)C(=O)O [Ceftazidime, ceftazidime, reference compound] | 4 µM (≈ 2.19 µg/mL) | > 64 µM | 2 µM (≈ 1.09 µg/mL) | 4 µM (≈ 2.19 µg/mL) |  |  |  |  |  |  |  |  |  |  |  |  |  |
| O=C(O)c1cn(C2CC2)c2cc(N3CCNCC3)c(F)cc2c1=O [Ciprofloxacin, ciprofloxacin, reference compound] |  | 4 µM (≈ 1.33 µg/mL) |  | 0.25 µM (≈ 0.0828 µg/mL) |  |  |  |  |  |  |  |  |  |  |  |  |  |
| COc1c(O)cc(C(=O)Nc2nc3ccccc3[nH]2)cc1O [Compound 8, N-(1H-benzo[d]imidazol-2-yl)-3,5-dihydroxy-4-methoxybenzamide] | > 64 µM | 8 µM (≈ 2.39 µg/mL) | > 64 µM | > 64 µM | > 64 µM | > 64 µM | 49400 ± 3300 nM | 2461.93 ± 21.42 | excellent in vitro antioxidant activity | significantly improved | 8 µM (≈ 2.39 µg/mL) | selective antibacterial activity | > 100000 nM | 52900 ± 16000 nM | 91800 ± 1000 nM |  |  |
| CC(C)Cn1c(NC(=O)c2cc(O)c(O)c(O)c2)nc2ccccc21 [Compound 33, 3,4,5-Trihydroxy-N-(1-isobutyl-1H-benzo[d]imidazol-2-yl)benzamide] | > 64 µM | 64 µM (≈ 21.8 µg/mL) | > 64 µM | 32 µM (≈ 10.9 µg/mL) | 64 µM (≈ 21.8 µg/mL) | > 64 µM | 77100 ± 7900 nM | 4154.35 ± 1.26 | excellent in vitro antioxidant activity | significantly improved |  |  | 43200 ± 18600 nM | 90800 ± 1600 nM | > 100000 nM | 291 to 293 °C | 32 µM (≈ 10.9 µg/mL) |
| COc1cccc2c1C(=O)c1c(O)c3c(c(O)c1C2=O)C[C@@](O)(C(=O)CO)C[C@@H]3O[C@H]1C[C@H](N)[C@H](O)[C@H](C)O1 [Doxorubicin, doxorubicin, reference compound] |  |  |  |  |  |  | 20 ± 10 nM |  |  |  |  |  | 40 ± 10 nM | 9 ± 4 nM | 40 ± 10 nM |  |  |
| COc1cc([C@@H]2c3cc4c(cc3[C@@H](O[C@@H]3O[C@@H]5CO[C@@H](C)O[C@H]5[C@H](O)[C@H]3O)[C@H]3COC(=O)[C@H]23)OCO4)cc(OC)c1O [Etoposide, etoposide, reference compound] |  |  |  |  |  |  | 650 ± 20 nM |  |  |  |  |  | 2200 ± 400 nM | 600 ± 100 nM | 2200 ± 400 nM |  |  |
| CNC(C)C1CCC(N)C(OC2C(N)CC(N)C(OC3OCC(C)(O)C(NC)C3O)C2O)O1 (stereo not shown) [Gentamicin, gentamicin, reference compound] | 4 µM (≈ 1.91 µg/mL) | 16 µM (≈ 7.64 µg/mL) | 2 µM (≈ 0.955 µg/mL) | 0.25 µM (≈ 0.119 µg/mL) | 1 µM (≈ 0.478 µg/mL) | 0.5 µM (≈ 0.239 µg/mL) |  |  |  |  |  |  |  |  |  |  |  |
| C[C@@H](O)[C@H]1C(=O)N2C(C(=O)O)=C(S[C@@H]3CN[C@H](C(=O)N(C)C)C3)[C@H](C)[C@H]12 [Meropenem, meropenem, reference compound] | 0.5 µM (≈ 0.192 µg/mL) | 8 µM (≈ 3.07 µg/mL) | 1 µM (≈ 0.383 µg/mL) | < 0.125 µM | < 0.125 µM | < 0.125 µM |  |  |  |  |  |  |  |  |  |  |  |
| CN(C)[C@@H]1C(O)=C(C(N)=O)C(=O)[C@@]2(O)C(O)=C3C(=O)c4c(O)cccc4[C@@](C)(O)[C@H]3C[C@@H]12 [Tetracycline, tetracycline, reference compound] |  |  |  |  | 32 µM (≈ 14.2 µg/mL) |  |  |  |  |  |  |  |  |  |  |  |  |
| NC[C@H]1O[C@H](O[C@H]2[C@H](O)[C@@H](O[C@H]3O[C@H](CO)[C@@H](O)[C@H](N)[C@H]3O)[C@H](N)C[C@@H]2N)[C@H](N)C[C@@H]1O [Tobramycin, reference compound] | 2 µM (≈ 0.935 µg/mL) | 8 µM (≈ 3.74 µg/mL) | 0.5 µM (≈ 0.234 µg/mL) | 0.25 µM (≈ 0.117 µg/mL) | 1 µM (≈ 0.468 µg/mL) | 1 µM (≈ 0.468 µg/mL) |  |  |  |  |  |  |  |  |  |  |  |
